These compounds were tested on Rattus norvegicus (assay: Anticonvulsant activity in albino rat at 30 mg/kg, ip measured after 1 hrs by MES test). Conditions: not given.
Assay type: functional
In the case of `Cc1nc2ccccc2c(=O)n1NCc1nnc(/N=C/c2ccc(O)cc2)s1`, the inhibition in vivo at 30 mg/kg is reported as 50%.
Compound `COc1ccc(C2SCC(=O)N2c2nnc(CNn3c(C)nc4ccccc4c3=O)s2)cc1` (configuration not stated) has an inhibition in vivo at 30 mg/kg of 60%.
Compound `Cc1nc2ccccc2c(=O)n1NCc1nnc(/N=C/c2ccccc2)s1` has an inhibition in vivo at 30 mg/kg of 50%.
`COc1cc(C2SCC(=O)N2c2nnc(CNn3c(C)nc4ccc(Br)cc4c3=O)s2)ccc1O` (configuration not stated) showed an inhibition in vivo at 30 mg/kg of 60%.
In the case of `COc1cc(/C=N/c2nnc(CNn3c(C)nc4ccc(Br)cc4c3=O)s2)ccc1O`, the inhibition in vivo at 30 mg/kg is reported as 50%.
`Cc1nc2ccccc2c(=O)n1NCc1nnc(/N=C/c2ccc(N(C)C)cc2)s1` showed an inhibition in vivo at 30 mg/kg of 50%.
With `COc1ccc(/C=N/c2nnc(CNn3c(C)nc4ccccc4c3=O)s2)cc1` the inhibition in vivo at 30 mg/kg was 50%.
Work on `Cc1nc2ccc(Br)cc2c(=O)n1NCc1nnc(/N=C/c2ccccc2)s1` yielded an inhibition in vivo at 30 mg/kg of 50%.
`Cc1nc2ccccc2c(=O)n1NCc1nnc(N2C(=O)CSC2c2ccc(N(C)C)cc2)s1` (configuration not stated) was tested, and the inhibition in vivo at 30 mg/kg was 60%.
`Cc1nc2ccccc2c(=O)n1NCc1nnc(N2C(=O)CSC2c2ccc(O)cc2)s1` (configuration not stated) gave an inhibition in vivo at 30 mg/kg of 60%.
Work on `COc1cc(/C=N/c2nnc(CNn3c(C)nc4ccccc4c3=O)s2)ccc1O` yielded an inhibition in vivo at 30 mg/kg of 50%.
In the case of `COc1cc(C2SCC(=O)N2c2nnc(CNn3c(C)nc4ccccc4c3=O)s2)ccc1O` (configuration not stated), the inhibition in vivo at 30 mg/kg is reported as 60%.
`COc1cccc(/C=N/c2nnc(CNn3c(C)nc4ccc(Br)cc4c3=O)s2)c1` gave an inhibition in vivo at 30 mg/kg of 50%.
With `Cc1nc2ccc(Br)cc2c(=O)n1NCc1nnc(N2C(=O)CSC2c2ccc(N(C)C)cc2)s1` (configuration not stated) the inhibition in vivo at 30 mg/kg was 60%.
In the case of `Cc1nc2ccccc2c(=O)n1NCc1nnc(N2C(=O)CSC2c2ccccc2)s1` (configuration not stated), the inhibition in vivo at 30 mg/kg is reported as 60%.
`Cc1nc2ccc(Br)cc2c(=O)n1NCc1nnc(/N=C/c2ccc(N(C)C)cc2)s1` was tested, and the inhibition in vivo at 30 mg/kg was 50%.
`Cc1nc2ccc(Br)cc2c(=O)n1NCc1nnc(N2C(=O)CSC2c2ccccc2)s1` (configuration not stated) showed an inhibition in vivo at 30 mg/kg of 60%.
For `COc1ccc(C2SCC(=O)N2c2nnc(CNn3c(C)nc4ccc(Br)cc4c3=O)s2)cc1` (configuration not stated), the inhibition in vivo at 30 mg/kg was 60%.
With `COc1ccc(/C=N/c2nnc(CNn3c(C)nc4ccc(Br)cc4c3=O)s2)cc1` the inhibition in vivo at 30 mg/kg was 50%.
In the case of `Cc1nc2ccc(Br)cc2c(=O)n1NCc1nnc(/N=C/c2ccc(O)cc2)s1`, the inhibition in vivo at 30 mg/kg is reported as 50%.
`COc1cccc(/C=N/c2nnc(CNn3c(C)nc4ccccc4c3=O)s2)c1` gave an inhibition in vivo at 30 mg/kg of 50%.
For `COc1cccc(C2SCC(=O)N2c2nnc(CNn3c(C)nc4ccccc4c3=O)s2)c1` (configuration not stated), the inhibition in vivo at 30 mg/kg was 60%.
`Nc1nnc(-c2cccc(Cl)c2Cl)c(N)n1` [LAMOTRIGINE] showed an inhibition in vivo at 30 mg/kg of 90%.
For `Cc1nc2ccc(Br)cc2c(=O)n1NCc1nnc(N2C(=O)CSC2c2ccc(O)cc2)s1` (configuration not stated), the inhibition in vivo at 30 mg/kg was 60%.
`COc1cccc(C2SCC(=O)N2c2nnc(CNn3c(C)nc4ccc(Br)cc4c3=O)s2)c1` (configuration not stated) showed an inhibition in vivo at 30 mg/kg of 60%.

These compounds were tested on Rattus norvegicus (assay: Anticonvulsant activity in PTZ induced rat at 50 mg/kg, sc measured after 2 to 4 mins relative to control). Conditions: time 2-4 min.
Assay type: functional
Work on `Cc1nc2ccc(I)cc2c(=O)n1NCc1nnc(NCC2C(=O)NC(=O)NC2=O)s1` yielded an Activity of 60%.
`Cc1nc2c(Br)cc(Br)cc2c(=O)n1NCc1nnc(NCC2C(=O)NC(=S)NC2=O)s1` showed an Activity of 60%.
`Cc1nc2ccccc2c(=O)n1NCc1nnc(NCC2C(=O)NC(=O)NC2=O)s1` was tested, and the Activity was 60%.
`Cc1nc2ccccc2c(=O)n1NCc1nnc(NCC2C(=O)NC(=S)NC2=O)s1` gave an Activity of 60%.
`Cc1nc2ccc(I)cc2c(=O)n1NCC(=O)NNC(=S)NCC1C(=O)NC(=O)NC1=O` gave an Activity of 40%.
`Cc1nc2ccc(I)cc2c(=O)n1NCC(=O)NNC(=S)NCC1C(=O)NC(=S)NC1=O` gave an Activity of 40%.
With `Cc1nc2c(Br)cc(Br)cc2c(=O)n1NCC(=O)NNC(=S)NCC1C(=O)NC(=S)NC1=O` the Activity was 40%.

These compounds were tested on Rattus norvegicus (assay: Anticonvulsant activity in rat at 50 mg/kg, ip measured after 1 hrs by MES test relative to control). Conditions: not given.
Assay type: functional
`Cc1nc2ccc(I)cc2c(=O)n1NCc1nnc(NCC2C(=O)NC(=O)NC2=O)s1` showed an Activity of 60%.
With `Cc1nc2c(Br)cc(Br)cc2c(=O)n1NCc1nnc(NCC2C(=O)NC(=S)NC2=O)s1` the Activity was 60%.
`Cc1nc2ccccc2c(=O)n1NCc1nnc(NCC2C(=O)NC(=O)NC2=O)s1` was tested, and the Activity was 60%.
`Cc1nc2ccccc2c(=O)n1NCc1nnc(NCC2C(=O)NC(=S)NC2=O)s1` gave an Activity of 60%.
`Cc1nc2ccc(I)cc2c(=O)n1NCC(=O)NNC(=S)NCC1C(=O)NC(=O)NC1=O` gave an Activity of 40%.
With `Cc1nc2ccc(I)cc2c(=O)n1NCC(=O)NNC(=S)NCC1C(=O)NC(=S)NC1=O` the Activity was 40%.
`Cc1nc2c(Br)cc(Br)cc2c(=O)n1NCC(=O)NNC(=S)NCC1C(=O)NC(=S)NC1=O` was tested, and the Activity was 40%.

These compounds were tested on Tobacco mosaic virus (assay: Antiviral activity against TMV at 500 microg/ml). Conditions: dose 500 µg/ml.
Assay type: functional
Compound `Cc1nc2ccc(Br)cc2c(=O)n1/C=C/c1cccc([N+](=O)[O-])c1` has an Activity of 54%.
`Cc1nc2ccc(Br)cc2c(=O)n1/C=C/c1ccc(Cl)c([N+](=O)[O-])c1` gave an Activity of 54%.
In the case of `Cc1nc2ccc(Br)cc2c(=O)n1/C=C/c1cc([N+](=O)[O-])ccc1Cl`, the Activity is reported as 54%.

Reference: ChEMBL document CHEMBL5260833, “An overview of quinazolines: Pharmacological significance and recent developments” (Eur J Med Chem, 2018)
